Test results: patent US10457691B2, “Macrocyclic kinase inhibitors and uses thereof” (Dana-Farber Cancer Institute, Inc., priority 2014, dated 2019)

Columns and labels:
Assay type in all cases: biochemical
[1] = biological target: OSR1 (Homo sapiens, UniProt O95747); experiment: Protein kinase assay ([γ-32P] ATP), OSR1; settings: read-out: Activity of the protein kinase when treated with compound I-1 (% control)
Experimental: (§1) In another set of experiments, the activities of the compounds described herein against various protein kinases were determined according to the methods reported in Hastie et al., Nature Protocols, 2006, 1, 968-971.
(§2) Enzyme dilution buffer. This buffer consisted of 50 mM Tris-HCl, pH 7.5, 0.1 mM EGTA, 1 mg ml^−1 bovine serum albumin and 0.1% (vol/vol) 2-mercaptoethanol.
(§3) 10× concentrated assay buffer. An assay buffer of 500 mM Tris-HCl, pH 7.5, 1 mM EGTA, and 100 mM magnesium acetate was used for assay of a wide variety of protein kinases. In some experiments, other cofactors were included (e.g., calcium ions and calmodulin were included for assay of calcium-calmodulindependent protein kinases).
(§4) 1 mM [γ-^32P] ATP. The specific activity of the [γ-^32P] ATP solution was 1×10^5 to 1×10^6 c.p.m. per nmol depending on what was needed to produce an optimal signal/noise ratio. […] To measure the concentration of ATP, a sample of such a stock solution was diluted to 20 μM, and the absorbance of the diluted sample was measured at 259 nm. The absorbance of a 20-μM stock solution of ATP at 259 nm was about 0.31. […] ATP to produce a radioactivity of 1×10^5 to 1×10^6 c.p.m. per nmol. […]
(§5) 13) Measure radioactivity in the samples by Cerenkov counting (e.g., without liquid scintillation fluid) in a liquid scintillation counter using a “^32P program”. […]

[2] = biological target: JNK2 (Homo sapiens, UniProt P45984); experiment: Protein kinase assay ([γ-32P] ATP), JNK2; settings: read-out: Activity of the protein kinase when treated with compound I-1 (% control)
Experimental: as §1, §2, §3, §4, §5

[3] = biological target: PIM3 (Homo sapiens, UniProt Q86V86); experiment: Protein kinase assay ([γ-32P] ATP), PIM3; settings: read-out: Activity of the protein kinase when treated with compound I-1 (% control)
Experimental: as §1, §2, §3, §4, §5

[4] = biological target: JAK2 (Homo sapiens, UniProt O60674); experiment: Protein kinase assay ([γ-32P] ATP), JAK2; settings: read-out: Activity of the protein kinase when treated with compound I-1 (% control)
Experimental: as §1, §2, §3, §4, §5

[5] = biological target: MPSK1 (Homo sapiens, UniProt O75716); experiment: Protein kinase assay ([γ-32P] ATP), MPSK1; settings: read-out: Activity of the protein kinase when treated with compound I-1 (% control)
Experimental: as §1, §2, §3, §4, §5

[6] = biological target: MSK1 (Homo sapiens, UniProt O75582); experiment: Protein kinase assay ([γ-32P] ATP), MSK1; settings: read-out: Activity of the protein kinase when treated with compound I-1 (% control)
Experimental: as §1, §2, §3, §4, §5

[7] = biological target: p38a MAPK (Homo sapiens, UniProt Q16539); experiment: Protein kinase assay ([γ-32P] ATP), p38a MAPK; settings: read-out: Activity of the protein kinase when treated with compound I-1 (% control)
Experimental: as §1, §2, §3, §4, §5

[8] = system: AMPK; experiment: Protein kinase assay ([γ-32P] ATP), AMPK
Experimental: as §1, §2, §3, §4, §5

[9] = biological target: EPH-A2 (Homo sapiens, UniProt P29317); experiment: Protein kinase assay ([γ-32P] ATP), EPH-A2; settings: read-out: Activity of the protein kinase when treated with compound I-1 (% control)
Experimental: as §1, §2, §3, §4, §5

[10] = biological target: MELK (Homo sapiens, UniProt Q14680); experiment: Protein kinase assay ([γ-32P] ATP), MELK; settings: read-out: Activity of the protein kinase when treated with compound I-1 (% control)
Experimental: as §1, §2, §3, §4, §5

[11] = biological target: TrkA (Homo sapiens, UniProt P04629); experiment: Protein kinase assay ([γ-32P] ATP), TrkA; settings: read-out: Activity of the protein kinase when treated with compound I-1 (% control)
Experimental: as §1, §2, §3, §4, §5

[12] = biological target: Aurora A (Homo sapiens, UniProt O14965); experiment: Protein kinase assay ([γ-32P] ATP), Aurora A; settings: read-out: Activity of the protein kinase when treated with compound I-1 (% control)
Experimental: as §1, §2, §3, §4, §5

[13] = biological target: MNK2 (Homo sapiens, UniProt Q9HBH9); experiment: Protein kinase assay ([γ-32P] ATP), MNK2; settings: read-out: Activity of the protein kinase when treated with compound I-1 (% control)
Experimental: as §1, §2, §3, §4, §5

[14] = biological target: SYK (Homo sapiens, UniProt P43405); experiment: Protein kinase assay ([γ-32P] ATP), SYK; settings: read-out: Activity of the protein kinase when treated with compound I-1 (% control)
Experimental: as §1, §2, §3, §4, §5

[15] = biological target: ASK1 (Homo sapiens, UniProt Q99683); experiment: Protein kinase assay ([γ-32P] ATP), ASK1; settings: read-out: Activity of the protein kinase when treated with compound I-1 (% control)
Experimental: as §1, §2, §3, §4, §5

[16] = biological target: MARK2 (Homo sapiens, UniProt Q7KZI7); experiment: Protein kinase assay ([γ-32P] ATP), MARK2; settings: read-out: Activity of the protein kinase when treated with compound I-1 (% control)
Experimental: as §1, §2, §3, §4, §5

[17] = biological target: STK33 (Homo sapiens, UniProt Q9BYT3); experiment: Protein kinase assay ([γ-32P] ATP), STK33; settings: read-out: Activity of the protein kinase when treated with compound I-1 (% control)
Experimental: as §1, §2, §3, §4, §5

[18] = 0.1 μM of compound I-1, DMSO control = 100%
[19] = 1 μM of compound I-1, DMSO control = 100%

Sequence of MNK2 (Q9HBH9 whole entry): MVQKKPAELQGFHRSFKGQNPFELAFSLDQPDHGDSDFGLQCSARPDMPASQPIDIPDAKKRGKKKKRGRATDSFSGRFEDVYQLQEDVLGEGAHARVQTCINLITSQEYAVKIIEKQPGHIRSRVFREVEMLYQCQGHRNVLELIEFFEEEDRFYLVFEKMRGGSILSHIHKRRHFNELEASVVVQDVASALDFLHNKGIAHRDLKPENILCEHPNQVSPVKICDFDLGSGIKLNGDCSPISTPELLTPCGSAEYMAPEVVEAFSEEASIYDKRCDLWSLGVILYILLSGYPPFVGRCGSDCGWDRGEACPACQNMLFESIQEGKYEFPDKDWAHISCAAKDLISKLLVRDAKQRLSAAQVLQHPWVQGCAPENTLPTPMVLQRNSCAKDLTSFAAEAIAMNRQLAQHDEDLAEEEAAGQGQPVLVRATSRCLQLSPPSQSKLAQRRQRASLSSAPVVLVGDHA
Sequence of JAK2 (O60674 whole entry): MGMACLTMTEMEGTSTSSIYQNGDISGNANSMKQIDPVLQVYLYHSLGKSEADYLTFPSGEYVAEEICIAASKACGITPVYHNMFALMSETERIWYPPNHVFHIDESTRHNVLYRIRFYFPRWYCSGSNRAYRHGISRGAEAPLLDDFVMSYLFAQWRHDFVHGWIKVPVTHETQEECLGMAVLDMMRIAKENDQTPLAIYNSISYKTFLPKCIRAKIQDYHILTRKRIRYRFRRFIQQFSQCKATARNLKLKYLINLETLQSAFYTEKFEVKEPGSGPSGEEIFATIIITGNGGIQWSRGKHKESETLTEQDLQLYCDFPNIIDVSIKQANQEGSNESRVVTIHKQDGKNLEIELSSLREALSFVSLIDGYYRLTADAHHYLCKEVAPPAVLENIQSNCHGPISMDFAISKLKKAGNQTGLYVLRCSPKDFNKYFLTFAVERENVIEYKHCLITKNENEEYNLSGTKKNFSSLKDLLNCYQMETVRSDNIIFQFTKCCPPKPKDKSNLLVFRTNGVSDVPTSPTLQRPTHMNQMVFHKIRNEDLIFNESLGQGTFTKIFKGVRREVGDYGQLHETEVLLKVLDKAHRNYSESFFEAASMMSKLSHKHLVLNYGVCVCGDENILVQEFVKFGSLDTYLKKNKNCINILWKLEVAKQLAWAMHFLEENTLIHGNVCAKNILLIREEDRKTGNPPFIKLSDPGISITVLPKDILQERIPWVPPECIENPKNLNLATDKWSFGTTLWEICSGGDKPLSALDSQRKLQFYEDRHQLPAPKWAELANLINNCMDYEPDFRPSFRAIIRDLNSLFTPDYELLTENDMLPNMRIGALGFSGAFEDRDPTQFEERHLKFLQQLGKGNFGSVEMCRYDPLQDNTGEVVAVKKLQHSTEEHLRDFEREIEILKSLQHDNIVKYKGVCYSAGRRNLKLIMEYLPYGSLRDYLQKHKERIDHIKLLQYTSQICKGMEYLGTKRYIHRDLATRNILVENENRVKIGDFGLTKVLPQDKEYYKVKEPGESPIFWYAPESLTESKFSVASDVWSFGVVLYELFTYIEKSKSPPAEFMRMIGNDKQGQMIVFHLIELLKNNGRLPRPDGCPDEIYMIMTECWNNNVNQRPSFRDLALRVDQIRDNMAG
Sequence of MSK1 (O75582 whole entry): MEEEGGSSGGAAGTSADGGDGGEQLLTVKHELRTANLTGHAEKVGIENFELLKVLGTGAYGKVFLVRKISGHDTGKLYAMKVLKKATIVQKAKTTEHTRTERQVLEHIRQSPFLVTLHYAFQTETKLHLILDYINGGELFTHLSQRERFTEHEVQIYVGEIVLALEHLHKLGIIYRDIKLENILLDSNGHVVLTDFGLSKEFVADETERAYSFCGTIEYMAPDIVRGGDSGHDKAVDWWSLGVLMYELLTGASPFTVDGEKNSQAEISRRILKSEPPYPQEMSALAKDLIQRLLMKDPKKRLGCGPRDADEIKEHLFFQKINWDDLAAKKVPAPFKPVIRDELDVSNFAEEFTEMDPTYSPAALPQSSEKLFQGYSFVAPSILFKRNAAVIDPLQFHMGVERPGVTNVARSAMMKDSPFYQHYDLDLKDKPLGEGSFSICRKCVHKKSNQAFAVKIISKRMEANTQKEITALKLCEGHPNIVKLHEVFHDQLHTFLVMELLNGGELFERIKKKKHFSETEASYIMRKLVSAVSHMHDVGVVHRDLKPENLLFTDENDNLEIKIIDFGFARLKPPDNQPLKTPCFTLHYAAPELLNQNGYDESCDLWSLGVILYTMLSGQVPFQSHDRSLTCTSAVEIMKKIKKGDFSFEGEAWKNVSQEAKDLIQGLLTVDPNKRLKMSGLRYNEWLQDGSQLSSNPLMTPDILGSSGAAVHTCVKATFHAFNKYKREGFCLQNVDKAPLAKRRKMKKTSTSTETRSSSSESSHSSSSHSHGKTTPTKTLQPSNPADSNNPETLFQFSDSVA
Sequence of MARK2 (Q7KZI7 whole entry): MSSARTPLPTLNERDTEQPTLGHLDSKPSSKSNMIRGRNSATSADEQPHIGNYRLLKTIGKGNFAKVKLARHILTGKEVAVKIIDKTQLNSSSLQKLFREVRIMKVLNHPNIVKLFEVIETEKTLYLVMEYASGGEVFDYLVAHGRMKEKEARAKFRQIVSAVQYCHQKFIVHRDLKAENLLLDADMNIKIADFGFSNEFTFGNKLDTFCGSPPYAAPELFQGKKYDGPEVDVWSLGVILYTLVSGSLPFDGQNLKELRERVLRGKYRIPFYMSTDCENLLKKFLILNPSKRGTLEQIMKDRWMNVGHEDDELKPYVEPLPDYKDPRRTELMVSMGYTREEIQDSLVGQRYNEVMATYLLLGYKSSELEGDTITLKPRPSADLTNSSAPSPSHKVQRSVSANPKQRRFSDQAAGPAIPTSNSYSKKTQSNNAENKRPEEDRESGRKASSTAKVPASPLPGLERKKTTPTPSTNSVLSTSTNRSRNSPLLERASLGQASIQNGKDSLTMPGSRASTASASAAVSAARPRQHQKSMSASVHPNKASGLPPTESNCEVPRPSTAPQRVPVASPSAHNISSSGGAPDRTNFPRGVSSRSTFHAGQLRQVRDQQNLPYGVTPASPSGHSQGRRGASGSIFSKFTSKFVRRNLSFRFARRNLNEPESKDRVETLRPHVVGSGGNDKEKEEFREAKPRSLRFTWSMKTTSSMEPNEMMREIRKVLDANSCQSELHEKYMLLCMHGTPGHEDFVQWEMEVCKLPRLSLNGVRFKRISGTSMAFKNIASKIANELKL
Sequence of ASK1 (Q99683 whole entry): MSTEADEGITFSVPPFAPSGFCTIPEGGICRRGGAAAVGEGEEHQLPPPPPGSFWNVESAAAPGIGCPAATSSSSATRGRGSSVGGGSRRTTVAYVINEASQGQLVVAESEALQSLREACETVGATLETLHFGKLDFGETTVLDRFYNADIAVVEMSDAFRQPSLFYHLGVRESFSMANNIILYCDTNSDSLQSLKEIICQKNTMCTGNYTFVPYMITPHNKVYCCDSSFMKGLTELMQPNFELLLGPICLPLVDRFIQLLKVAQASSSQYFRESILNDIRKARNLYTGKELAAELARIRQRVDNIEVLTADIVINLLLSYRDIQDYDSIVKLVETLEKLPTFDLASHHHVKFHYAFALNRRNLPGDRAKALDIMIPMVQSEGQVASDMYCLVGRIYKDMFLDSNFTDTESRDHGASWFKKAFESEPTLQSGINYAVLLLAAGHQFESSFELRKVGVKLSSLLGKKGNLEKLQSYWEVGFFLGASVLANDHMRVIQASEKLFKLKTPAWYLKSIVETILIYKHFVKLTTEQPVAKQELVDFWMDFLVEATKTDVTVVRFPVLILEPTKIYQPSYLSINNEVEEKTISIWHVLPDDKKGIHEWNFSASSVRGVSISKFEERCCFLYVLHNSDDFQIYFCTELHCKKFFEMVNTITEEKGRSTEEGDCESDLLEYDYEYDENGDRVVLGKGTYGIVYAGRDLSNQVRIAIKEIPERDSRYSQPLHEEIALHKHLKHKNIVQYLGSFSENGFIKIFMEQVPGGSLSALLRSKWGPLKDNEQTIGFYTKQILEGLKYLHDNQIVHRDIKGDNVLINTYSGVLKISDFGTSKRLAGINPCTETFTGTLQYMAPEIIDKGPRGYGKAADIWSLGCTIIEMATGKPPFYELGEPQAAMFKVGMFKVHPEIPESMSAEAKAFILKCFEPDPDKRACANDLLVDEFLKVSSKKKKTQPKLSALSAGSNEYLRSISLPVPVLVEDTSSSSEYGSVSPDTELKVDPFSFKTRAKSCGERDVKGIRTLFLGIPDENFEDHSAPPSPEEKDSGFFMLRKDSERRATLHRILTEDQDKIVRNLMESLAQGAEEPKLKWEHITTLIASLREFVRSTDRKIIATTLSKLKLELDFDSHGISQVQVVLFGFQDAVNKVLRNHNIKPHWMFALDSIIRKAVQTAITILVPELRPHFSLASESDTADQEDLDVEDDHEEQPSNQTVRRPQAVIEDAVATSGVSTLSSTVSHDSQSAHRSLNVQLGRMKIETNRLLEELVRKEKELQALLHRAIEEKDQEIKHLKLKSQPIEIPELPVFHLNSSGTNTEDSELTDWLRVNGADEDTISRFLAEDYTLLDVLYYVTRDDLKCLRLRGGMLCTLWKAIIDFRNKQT
Sequence of JNK2 (P45984 whole entry): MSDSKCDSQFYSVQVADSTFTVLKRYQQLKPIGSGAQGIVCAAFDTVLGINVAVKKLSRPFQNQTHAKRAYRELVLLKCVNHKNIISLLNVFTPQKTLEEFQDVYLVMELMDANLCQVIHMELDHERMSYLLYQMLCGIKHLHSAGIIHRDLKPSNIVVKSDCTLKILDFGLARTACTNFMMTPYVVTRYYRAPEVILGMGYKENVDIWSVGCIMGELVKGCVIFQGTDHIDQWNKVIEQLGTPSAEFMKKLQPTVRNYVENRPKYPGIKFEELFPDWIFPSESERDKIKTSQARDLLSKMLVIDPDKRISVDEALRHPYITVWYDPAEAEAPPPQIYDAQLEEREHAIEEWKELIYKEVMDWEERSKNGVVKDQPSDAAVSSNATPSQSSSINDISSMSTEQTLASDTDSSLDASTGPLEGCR

Cc1cccc(C)c1NC(=O)N1C/C=C\COc2cccc(c2)Nc2cc1ncn2 [Compound I-1]
remaining activity at 0.1 µM [1, 18]: 97%
remaining activity at 1 µM [1, 19]: 79%
remaining activity at 0.1 µM [2, 18]: 81%
remaining activity at 1 µM [2, 19]: 34%
remaining activity at 0.1 µM [3, 18]: 93%
remaining activity at 1 µM [3, 19]: 84%
remaining activity at 0.1 µM [4, 18]: 100%
remaining activity at 1 µM [4, 19]: 72%
remaining activity at 0.1 µM [5, 18]: 110%
remaining activity at 1 µM [5, 19]: 89%
remaining activity at 0.1 µM [6, 18]: 107%
remaining activity at 1 µM [6, 19]: 81%
remaining activity at 0.1 µM [7, 18]: 79%
remaining activity at 1 µM [7, 19]: 14%
Activity of the protein kinase when treated with compound I-1 (% control) [8, 18]: 96 % control
Activity of the protein kinase when treated with compound I-1 (% control) [8, 19]: 91 % control
remaining activity at 0.1 µM [9, 18]: 11%
remaining activity at 1 µM [9, 19]: 5%
remaining activity at 0.1 µM [10, 18]: 67%
remaining activity at 1 µM [10, 19]: 49%
remaining activity at 0.1 µM [11, 18]: 54%
remaining activity at 1 µM [11, 19]: 76%
remaining activity at 0.1 µM [12, 18]: 102%
remaining activity at 1 µM [12, 19]: 103%
remaining activity at 0.1 µM [13, 18]: 104%
remaining activity at 1 µM [13, 19]: 108%
remaining activity at 0.1 µM [14, 18]: 100%
remaining activity at 1 µM [14, 19]: 91%
remaining activity at 0.1 µM [15, 18]: 117%
remaining activity at 1 µM [15, 19]: 96%
remaining activity at 0.1 µM [16, 18]: 102%
remaining activity at 1 µM [16, 19]: 71%
remaining activity at 0.1 µM [17, 18]: 116%
remaining activity at 1 µM [17, 19]: 100%
